Assay results as given in patent US20230303478A1, “PROCESS FOR PREPARING CARBOXYLIC ACID ESTERS OF HYDROXYBUTANOATES” (IOI Oleo GmbH, priority 2020, published 2023).

Columns and labels:
[1] = Cleavage (in-vitro digestion) experiments in FaSSGF medium, which simulates the stomach; assay type: in vitro ADME; details: cleavage experiments in FaSSGF or FaSSIF medium; stepwise release, retardation effect
Description: By means of cleavage experiments it is shown that carboxylic acid esters of 3-hydroxybutanoate produced according to the invention or mixtures thereof (cf. previously described experiments according to I., II. and III.), including reaction by-products such as dimers, etc., can be cleaved in the human gastrointestinal tract.
In each case, purified reaction products obtained by the inventive method are used as starting mixtures (i.e. tartaric acid ester of 3-hydroxybutanoate, lactic acid ester of 3-hydroxybutanoate, succinic acid ester of 3-hydroxybutanoate, citric acid ester of 3-hydroxybutanoate, maleic acid ester of 3-hydroxybutanoate, fumaric acid ester of 3-hydroxybutanoate, malic acid ester of 3-hydroxybutanoate and adipic acid ester of 3-hydroxybutanoate).
For the cleavage experiments under near-body conditions two media are investigated: • FaSSGF, which simulates the stomach • FaSSIF, which simulates the intestinal tract
Both media are from the company Biorelevant®, Ltd. in Great Britain. In addition, in some experiments porcine pancreas is added (Panzytrat® 40,000, Fa. Allergan).
Under FaSSIF conditions, a lower conversion using Panzytrat® takes place.
Accordingly, the cleavage experiments of dicarboxylic acid esters of 3-hydroxybutanoates also proceed in a cascade. Thus, a retardation effect is present overall.

[2] = even if several grams are taken; patients; cited from earlier work

Row | SMILES | course of the cleavage of 3-hydroxybutanoate [1] | duration of ketosis [2]
1 | CCOC(=O)CC(C)OC(=O)CC(O)(CC(=O)OC(C)CC(=O)OCC)C(=O)OC(C)CC(=O)OCC (centres unmarked) [1,2,3-tris-(4-ethoxy-4-oxobutan-2yl)-2-hydroxypropane-1,2,3-tricarboxylate] | proceeds in a cascade | –
2 | CC(O)CC(=O)O (centres unmarked) [3-hydroxybutyric acid] | – | about three to four
